Molecules are shown by their SMILES.

As a reminder, the IC50 is the concentration at which inhibition is half-maximal.

For assay [1], the system named is MDA-MB-231 cells. Description: ultra-low adherent 3D-spheroid suspension cell viability (3D Cell Titer-Glo), 120 hours. Format: cell-based. To be noted: Homo sapiens. The method, then: For ultra-low adherent 3D-spheroid suspensions, MDA-MB-231 cells were plated in 384-well format in media containing 10% Matrigel® and allowed to form spheroids overnight. Cells were treated with indicated molecules from compound stock plates using a JANUS® Workstation pin tool for 120 hours. To measure cell viability, 3D Cell Titer-Glo® was added to wells for 15 minutes at room temperature and luminescence was measured on an EnVision™ 2104 Multilabel Plate Reader.

In assay [2] the test system is MDA-MB-231 cells. Description: 2D-adherent monolayer cell viability (Cell Titer-Glo), 120 hrs. In kind it is cell-based. To be noted: Homo sapiens. The method, then: For 2D-adherent monolayer experiments, MDA-MB-231 cells were plated in 384-well format and allowed to adhere overnight. Cells were treated with indicated molecules from compound stock plates using a JANUS® Workstation pin tool for 120 hrs. To measure cell viability, Cell Titer-Glo® was added to wells for 15 minutes at room temperature and luminescence was measured on an EnVision™ 2104 Multilabel Plate Reader.
Inventive compound treatment (0.00063-20 μM) led to antiproliferative effects in MDA-MB-231 cells cultured as 2D-adherent monolayers or as ultra-low adherent 3D-spheroid suspensions (Table 5).
For orientation: In ATP-based viability assays light output follows the ATP content of the culture.

A further assay has as its target PTK2 (FAK) (Homo sapiens (Human), UniProt Q05397). Description: Z′-LYTE kinase assay (SelectScreen Biochemical Kinase Profiling), enzymatic IC50. To be noted: enzymatic, Z′-LYTE; read-out: FAK IC50. How it is done:
Enzymatic IC50 data was obtained through ThermoFisher Scientific SelectScreen™ Biochemical Kinase Profiling Service, using a Z′-LYTE™ kinase-specific assay, as described below.
The test compounds were screened in 1% dimethyl sulfoxide (DMSO) (final) in the well. For 10 point titrations, 3-fold serial dilutions were conducted from the starting concentration.
All peptide/kinase mixtures were diluted to a 2× working concentration in the appropriate kinase buffer (see section kinase specific assay conditions for a complete description).
All ATP solutions were diluted to a 4× working concentration in kinase buffer (50 mM 4-(2-hydroxyethyl)-1-piperazineethanesulfonic acid (HEPES) pH 7.5, 0.01% BRIJ-35, 10 mM MgCl2, 1 mM ethylene glycol-bis(β-aminoethyl ether)-N,N,N′,N′-tetraacetic acid (EGTA)). ATP Km apparent was previously determined using a Z′-LYTE assay.
The development reagent was diluted in development buffer (see section kinase-specific assay conditions—direct and cascade for a complete description).
Using a bar-coded Corning, low volume NBS, black 384-well plate (Corning Cat. #4514), 100 nL of 100× test compound in 100% DMSO was added. […] The plate was then shaken for 30 seconds and held at room temperature for a 60 minute kinase reaction incubation period. At which point 5 μL of development reagent solution was added and the plate was shaken for 30 seconds. The plate was held again at room temperature for a 60 minute development reaction incubation period and then read on a fluorescence plate reader and analyzed.
The 2×PTK2 (FAK)/Tyr 07 mixture was prepared in 50 mM HEPES pH 7.5, 0.01% BRIJ-35, 10 mM MgCl2, 1 mM EGTA. […] After the 1 hour kinase reaction incubation period, 5 μL of a 1:16 dilution of development reagent B was added.
SelectScreen Kinase Profiling Service uses XLfit from ID Business Solutions (IDBS). The dose response curve was curve fit to model number 205 (sigmoidal dose-response model).

Chain of PTK2 (FAK) (Q05397 whole entry): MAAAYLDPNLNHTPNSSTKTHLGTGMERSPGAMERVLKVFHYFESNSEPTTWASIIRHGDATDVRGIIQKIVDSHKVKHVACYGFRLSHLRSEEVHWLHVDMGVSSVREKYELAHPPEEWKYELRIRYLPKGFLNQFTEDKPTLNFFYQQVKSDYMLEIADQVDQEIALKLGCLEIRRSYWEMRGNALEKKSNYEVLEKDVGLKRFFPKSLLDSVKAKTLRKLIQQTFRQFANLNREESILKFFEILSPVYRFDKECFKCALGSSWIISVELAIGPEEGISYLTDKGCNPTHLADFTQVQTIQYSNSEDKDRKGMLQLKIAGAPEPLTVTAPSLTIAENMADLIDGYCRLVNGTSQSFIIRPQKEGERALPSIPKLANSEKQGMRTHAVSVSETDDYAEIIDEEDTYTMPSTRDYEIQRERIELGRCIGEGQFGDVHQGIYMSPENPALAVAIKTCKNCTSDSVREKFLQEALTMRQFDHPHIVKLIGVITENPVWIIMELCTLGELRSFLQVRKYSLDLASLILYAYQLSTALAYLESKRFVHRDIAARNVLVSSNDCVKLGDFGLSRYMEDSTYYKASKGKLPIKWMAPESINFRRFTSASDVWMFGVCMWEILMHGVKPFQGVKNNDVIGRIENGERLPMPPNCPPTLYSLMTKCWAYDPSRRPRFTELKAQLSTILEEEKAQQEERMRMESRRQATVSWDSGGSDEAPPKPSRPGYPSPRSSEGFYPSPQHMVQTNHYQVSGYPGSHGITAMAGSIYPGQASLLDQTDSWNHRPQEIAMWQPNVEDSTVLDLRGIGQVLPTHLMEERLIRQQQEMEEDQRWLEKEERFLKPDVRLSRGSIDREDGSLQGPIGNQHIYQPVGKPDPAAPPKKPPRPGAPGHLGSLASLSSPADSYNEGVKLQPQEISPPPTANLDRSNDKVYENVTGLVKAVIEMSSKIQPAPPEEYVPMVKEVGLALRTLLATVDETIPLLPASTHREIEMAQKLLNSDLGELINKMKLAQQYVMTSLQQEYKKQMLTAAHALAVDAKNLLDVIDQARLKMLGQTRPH

Turning to `COc1cc(N2CCNCC2)ccc1Nc1ncc2c(n1)N(C)c1sc(C)nc1C(=O)N2C` [Compound 12, 6-((2-methoxy-4-(piperazin-1-yl)phenyl)amino)-2,4,9-trimethyl-4,9-dihydro-10H-pyrimido[5,4-b]thiazolo[5,4-e][1,4]diazepin-10-one], the IC50 in the assay with MDA-MB-231 cells [1] was 2500 nM; in the assay with MDA-MB-231 cells [2], over 10000 nM; at PTK2 (FAK), 43.5 nM.

In the case of `COc1cc(N2CCN(C)CC2)ccc1Nc1ncc2c(n1)N(C)c1sc(C)nc1C(=O)N2C` [Compound 14, 6-((2-methoxy-4-(4-methylpiperazin-1-yl)phenyl)amino)-2,4,9-trimethyl-4,9-dihydro-10H-pyrimido[5,4-b]thiazolo[5,4-e][1,4]diazepin-10-one], the 50% inhibitory concentration (IC50) is 2300 nM with MDA-MB-231 cells [1], over 10000 nM in the assay with MDA-MB-231 cells [2] and 30.3 nM on PTK2 (FAK).

As for `CCOc1cc(N2CCN(C)CC2)ccc1Nc1ncc2c(n1)N(C)c1sc(C)nc1C(=O)N2C` [Compound 16, 6-((2-ethoxy-4-(4-methylpiperazin-1-yl)phenyl)amino)-2,4,9-trimethyl-4,9-dihydro-10H-pyrimido[5,4-b]thiazolo[5,4-e][1,4]diazepin-10-one], the IC50 in the assay with MDA-MB-231 cells [1] is 6100 nM; in the assay with MDA-MB-231 cells [2], over 10000 nM; at PTK2 (FAK), 54.5 nM.

For the compound `COc1cc(N2CCN(C)CC2)c(C)cc1Nc1ncc2c(n1)N(C)c1sc(C)nc1C(=O)N2C` [Compound 18, 6-((2-methoxy-5-methyl-4-(4-methylpiperazin-1-yl)phenyl)amino)-2,4,9-trimethyl-4,9-dihydro-10H-pyrimido[5,4-b]thiazolo[5,4-e][1,4]diazepin-10-one], the IC50 is 7700 nM in the assay with MDA-MB-231 cells [1], over 10000 nM in the assay with MDA-MB-231 cells [2] and 31.5 nM at PTK2 (FAK).

Regarding `COc1cc(C2CCN(C)CC2)ccc1Nc1ncc2c(n1)N(C)c1sc(C)nc1C(=O)N2C` [Compound 19, 6-((2-methoxy-4-(1-methylpiperidin-4-yl)phenyl)amino)-2,4,9-trimethyl-4,9-dihydro-10H-pyrimido[5,4-b]thiazolo[5,4-e][1,4]diazepin-10-one], the results for the IC50 with MDA-MB-231 cells [1], in the assay with MDA-MB-231 cells [2] and on PTK2 (FAK) were 3700 nM, 8900 nM and 51.9 nM, respectively.

As to `COc1cc(N2CCN(CCO)CC2)ccc1Nc1ncc2c(n1)N(C)c1sc(C)nc1C(=O)N2C` [Compound 20, 6-((4-(4-(2-hydroxyethyl)piperazin-1-yl)-2-methoxyphenyl)amino)-2,4,9-trimethyl-4,9-dihydro-10H-pyrimido[5,4-b]thiazolo[5,4-e][1,4]diazepin-10-one], the IC50 is over 10000 nM in the assay with MDA-MB-231 cells [1], over 10000 nM with MDA-MB-231 cells [2] and 73.9 nM at PTK2 (FAK).

As to `CNC(=O)c1ccc(Nc2ncc3c(n2)N(C)c2sc(C)nc2C(=O)N3C)c(OC)c1` [Compound 21, 3-methoxy-N-methyl-4-((2,4,9-trimethyl-10-oxo-9,10-dihydro-4H-pyrimido[5,4-b]thiazolo[5,4-e][1,4]diazepin-6-yl)amino)benzamide], the IC50 is over 10000 nM in the assay with MDA-MB-231 cells [1], over 10000 nM in the assay with MDA-MB-231 cells [2] and 45.4 nM on PTK2 (FAK).

For the compound `COc1cc2c(cc1Nc1ncc3c(n1)N(C)c1sc(C)nc1C(=O)N3C)CN(C)CC2` [Compound 22, 6-((6-methoxy-2-methyl-1,2,3,4-tetrahydroisoquinolin-7-yl)amino)-2,4,9-trimethyl-4,9-dihydro-10H-pyrimido[5,4-b]thiazolo[5,4-e][1,4]diazepin-10-one], the IC50 with MDA-MB-231 cells [1] was over 10000 nM; in the assay on MDA-MB-231 cells [2], over 10000 nM; on PTK2 (FAK), 37.8 nM.

As for `Cc1nc2c(s1)N(C)c1nc(Nc3ccc4c(c3)CCC(=O)N4)ncc1N(C)C2=O` [Compound 23, 2,4,9-trimethyl-6-((2-oxo-1,2,3,4-tetrahydroquinolin-6-yl)amino)-4,9-dihydro-10H-pyrimido[5,4-b]thiazolo[5,4-e][1,4]diazepin-10-one], the IC50 in the assay on MDA-MB-231 cells [1] was over 10000 nM; with MDA-MB-231 cells [2] it was over 10000 nM; on PTK2 (FAK) it was 670 nM.

For the compound `COc1cc(N2CCN(C)CC2=O)ccc1Nc1ncc2c(n1)N(C)c1sc(C)nc1C(=O)N2C` [Compound 196, 6-((2-methoxy-4-(4-methyl-2-oxopiperazin-1-yl)phenyl)amino)-2,4,9-trimethyl-4,9-dihydro-10H-pyrimido[5,4-b]thiazolo[5,4-e][1,4]diazepin-10-one], the IC50 on PTK2 (FAK) was determined as 82.4 nM.

Regarding `COc1cc(N2CCN(C(C)=O)CC2)ccc1Nc1ncc2c(n1)N(C)c1sc(C)nc1C(=O)N2C` [Compound 199, 6-((4-(4-acetylpiperazin-1-yl)-2-methoxyphenyl)amino)-2,4,9-trimethyl-4,9-dihydro-10H-pyrimido[5,4-b]thiazolo[5,4-e][1,4]diazepin-10-one], the 50% inhibitory concentration (IC50) at PTK2 (FAK) stood at 45.7 nM.

On to `COc1cc(N2CCN(CCN(C)C)CC2)ccc1Nc1ncc2c(n1)N(C)c1sc(C)nc1C(=O)N2C` [Compound 200, 6-((4-(4-(2-(dimethylamino)ethyl)piperazin-1-yl)-2-methoxyphenyl)amino)-2,4,9-trimethyl-4,9-dihydro-10H-pyrimido[5,4-b]thiazolo[5,4-e][1,4]diazepin-10-one], for which the IC50 at PTK2 (FAK) is 67.2 nM.

In the case of `Cc1nc2c(s1)N(C)c1nc(Nc3ccc(N4CCN(C)CC4)cc3OCC(F)(F)F)ncc1N(C)C2=O` [Compound 201, 2,4,9-trimethyl-6-((4-(4-methylpiperazin-1-yl)-2-(2,2,2-trifluoroethoxy)phenyl)amino)-4,9-dihydro-10H-pyrimido[5,4-b]thiazolo[5,4-e][1,4]diazepin-10-one], the IC50 on PTK2 (FAK) amounted to 83.5 nM.

With `CCCOc1cc(N2CCN(C)CC2)ccc1Nc1ncc2c(n1)N(C)c1sc(C)nc1C(=O)N2C` [Compound 202, 2,4,9-trimethyl-6-((4-(4-methylpiperazin-1-yl)-2-propoxyphenyl)amino)-4,9-dihydro-10H-pyrimido[5,4-b]thiazolo[5,4-e][1,4]diazepin-10-one], the IC50 on PTK2 (FAK) is 155 nM.

Take `COc1cc(N2CCC(N3CCN(C)CC3)CC2)ccc1Nc1ncc2c(n1)N(C)c1sc(C(C)C)nc1C(=O)N2C` [Compound 203, 2-isopropyl-6-((2-methoxy-4-(4-(4-methylpiperazin-1-yl)piperidin-1-yl)phenyl)amino)-4,9-dimethyl-4,9-dihydro-10H-pyrimido[5,4-b]thiazolo[5,4-e][1,4]diazepin-10-one]: at PTK2 (FAK), the IC50 was determined as 58.8 nM.

In the case of `COc1cc(N2CCC(N3CCN(C)CC3)CC2)ccc1Nc1ncc2c(n1)N(CC(F)(F)F)c1sc(C)nc1C(=O)N2C` [Compound 204, 6-((2-methoxy-4-(4-(4-methylpiperazin-1-yl)piperidin-1-yl)phenyl)amino)-2,9-dimethyl-4-(2,2,2-trifluoroethyl)-4,9-dihydro-10H-pyrimido[5,4-b]thiazolo[5,4-e][1,4]diazepin-10-one], the IC50 on PTK2 (FAK) is 68.3 nM.

`CCCN1c2nc(Nc3ccc(N4CCC(N5CCN(C)CC5)CC4)cc3OC)ncc2N(C)C(=O)c2nc(C)sc21` [Compound 205, 6-((2-methoxy-4-(4-(4-methylpiperazin-1-yl)piperidin-1-yl)phenyl)amino)-2,9-dimethyl-4-propyl-4,9-dihydro-10H-pyrimido[5,4-b]thiazolo[5,4-e][1,4]diazepin-10-one]: the IC50 at PTK2 (FAK) was found to be 46.6 nM.

Source of the values: patent US12365696B2, “Small-molecule focal adhesion kinase (FAK) inhibitors” (DANA-FARBER CANCER INSTITUTE, INC., priority 2019, dated 2025).
